This is an account of results in US9579401B2, “Staining composition” (Medical Technology Transfer Holding B.V., priority 2010, dated 2017).

This data set is described as follows: Stability of trypan blue and brilliant blue G in polymer solutions, 70° C. for 7 days, absorbance spectra. The note with it: 0.025% (w/v).

Take `CCOc1ccc(Nc2ccc(/C(=C3C=C/C(=[N+](/CC)Cc4cccc(S(=O)(=O)[O-])c4)C=C/3C)c3ccc(N(CC)Cc4cccc(S(=O)(=O)[O-])c4)cc3C)cc2)cc1.[Na+]` [brilliant blue G]: the “stability of brilliant blue G (difference absorbance spectra)” value is “excellent solvent” (4% (w/v) PEG Mw≈3350) and “much less stable” (PVA Mw≈13,000-23,000).
